Measured values reported in publication PMC8460535, “Novel serotonin 5-HT2A receptor antagonists derived from 4-phenylcyclohexane-5-spiro-and 5-methyl-5-phenyl-hydantoin, for use as potential antiplatelet agents” (Pharmacological Reports, 2021).
Like-named read-outs stand apart in the source and are kept apart here. Marks after values point to notes of the source that are not given here.

What was measured:
[1] = test system: whole rat blood aggregation induced by collagen; experiment: In vitro whole rat blood aggregation induced by collagen (Multiplate); type: cell-based; conditions: collagen 1.6 μg/ml, na = not active
Procedure: (§1) In vitro aggregation assays were performed using freshly drawn whole rat blood with a Multiplate platelet function analyzer (Roche Diagnostic), the five-channel aggregometer based on measurements of electric impedance. Blood was collected from carotid arteries with a hirudin blood tube (Roche Diagnostic). 300 μl of hirudin anticoagulated blood was mixed with 300 μl prewarmed isotonic saline solution containing studied compound or vehicle (deionized water or DMSO 0.1%) and preincubated for 3 min at 37 °C with continuous stirring. Aggregation was induced by adding collagen (Hyphen-Biomed, France) (final concentration 1.6 µg/ml), 5-HT (30 µM) and sub-threshold concentration of collagen (0.8 µg/ml), 5-HT (6 µM) and sub-threshold concentration of ADP (ADP test, Roche Diagnostic), (1.6 µM). The aggregation process was recorded for 6 min. Ketanserin (ketanserin ( +) tartrate salt, Sigma-Aldrich, Germany), sarpogrelate (sarpogrelate hydrochloride, Sigma-Aldrich, Germany), and aspirin (Tocris, UK) were used as reference compounds. The Multiplate software analyzed the area under the curve (AUC) of the clotting process of each measurement and calculated the mean values. Each concentration of studied compounds was tested at least three times. The exact sample size (n value) is presented on Figs. 2–4. Concentration-inhibition curves were constructed and analyzed by non-linear curve fitting using GraphPad Prism 6.0 (GraphPad Software Inc., San Diego, CA, USA).

[2] = target: T1, human 5-HT2A receptor (Homo sapiens, UniProt P28223); experiment: 5-HT2A receptor radioligand binding assay ([3H]-ketanserin, CHO-K1 membranes)
T1 construct: purchased PerkinElmer; host or cells: CHO-K1 cells, stably transfected
Procedure: Stock solutions of tested compounds (10 mM) were prepared in DMSO. […] Each compound was tested in eight concentrations from 10^–5 to 10^–12 M (final concentration).
Radioligand binding was performed using membranes from CHO-K1 cells stably transfected with the human 5-HT2A receptor (PerkinElmer). All assays were carried out in duplicates. Data were fitted to a one-site curve-fitting equation with Prism 6 (GraphPad Software) and Ki values were estimated from the Cheng − Prusoff equation. The full description of this assay is in Supplementary material.
Mianserin (10 μM) was used to define nonspecific binding. […] The reaction was terminated by rapid filtration through GF/B filter mate presoaked with 0.5% polyethyleneimine for 30 minutes. Ten rapid washes with 200 µl 50 mM Tris buffer (4°C, pH 7.4) were performed using automated harvester system Harvester-96 MACH III FM (Tomtec). […] Radioactivity was counted in MicroBeta2 scintillation counter (PerkinElmer).

[3] = test system: whole rat blood aggregation induced by 5-HT and collagen; experiment: In vitro whole rat blood aggregation induced by 5-HT and sub-threshold collagen; type: cell-based; conditions: 5-HT 30 μM and collagen 0.8 μg/ml, read-out: b (5-HT + collagen) IC50
Procedure: as §1

[4] = test system: whole rat blood aggregation induced by 5-HT and ADP; experiment: In vitro whole rat blood aggregation induced by 5-HT and sub-threshold ADP; type: cell-based; conditions: 5-HT 6 μM and ADP 1.6 μM, na = not active, read-out: c (5-HT + ADP) IC50
Procedure: as §1

[5] = target: 5-HT2A receptor; conditions: cited from earlier work
[6] = target: T2, 5-HT2A receptors in rat aorta (Rattus norvegicus, UniProt P14842); conditions: already published; cited from earlier work
T2 construct: Isolated rat aorta was used to determine the antagonistic activity of studied compounds for 5HT2A-receptors; from tissue; host or cells: aortic rings of male Wistar rats, denuded of the endothelium

[7] = target: serotonin 5-HT1A receptor; parameters: method as in Czopek et al., Acta Pol. Pharm. 73 (2016) 1545–1554; conditions: ref Czopek et al., Acta Pol. Pharm. 73 (2016) 1545–1554; read-out: Ki ± SEM [nM] 5-HT1A; cited from earlier work
[8] = target: dopamine D2 receptor; parameters: method as in Czopek et al., Acta Pol. Pharm. 73 (2016) 1545–1554; conditions: ref Czopek et al., Acta Pol. Pharm. 73 (2016) 1545–1554; read-out: Ki ± SEM [nM] D2; cited from earlier work
[9] = test system: whole rat blood aggregation induced by 5-HT and ADP; parameters: method as in PMID 29111111; conditions: 5-HT 6 μM and ADP 1.6 μM, already published, read-out: c (5-HT + ADP) IC50; cited from earlier work
[10] = target: T1, human 5-HT2A receptor; parameters: method as in PMID 29111111; conditions: cells expressing human 5-HT2A receptors; already published; cited from earlier work

T1 sequence (P28223 whole entry): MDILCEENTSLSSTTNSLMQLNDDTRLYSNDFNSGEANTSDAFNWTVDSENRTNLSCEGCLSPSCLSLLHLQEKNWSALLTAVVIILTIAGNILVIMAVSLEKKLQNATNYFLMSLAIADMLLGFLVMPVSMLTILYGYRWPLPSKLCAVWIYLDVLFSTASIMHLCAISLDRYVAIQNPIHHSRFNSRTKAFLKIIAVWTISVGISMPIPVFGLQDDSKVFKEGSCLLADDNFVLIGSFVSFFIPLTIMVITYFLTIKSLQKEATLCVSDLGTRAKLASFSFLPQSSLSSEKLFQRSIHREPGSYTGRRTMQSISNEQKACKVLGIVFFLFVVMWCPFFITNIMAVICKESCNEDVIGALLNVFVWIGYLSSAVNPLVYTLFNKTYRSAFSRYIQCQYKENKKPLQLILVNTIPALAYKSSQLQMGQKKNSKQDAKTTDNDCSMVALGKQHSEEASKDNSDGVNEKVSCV
T2 sequence (P14842 whole entry): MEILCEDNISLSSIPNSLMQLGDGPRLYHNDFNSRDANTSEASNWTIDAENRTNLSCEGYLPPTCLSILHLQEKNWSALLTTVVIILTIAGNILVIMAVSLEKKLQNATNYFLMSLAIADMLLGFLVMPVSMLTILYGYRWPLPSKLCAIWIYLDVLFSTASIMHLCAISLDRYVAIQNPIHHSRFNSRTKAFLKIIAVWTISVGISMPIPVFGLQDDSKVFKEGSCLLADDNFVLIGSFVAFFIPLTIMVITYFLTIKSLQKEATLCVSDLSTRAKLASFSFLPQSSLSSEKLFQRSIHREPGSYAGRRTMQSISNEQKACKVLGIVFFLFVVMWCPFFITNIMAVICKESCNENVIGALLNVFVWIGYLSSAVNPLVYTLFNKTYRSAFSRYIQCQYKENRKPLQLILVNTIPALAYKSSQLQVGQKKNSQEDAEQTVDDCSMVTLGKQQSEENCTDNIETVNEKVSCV

IC50 [1] [µM]	IC50 [3] [µM]	SMILES	IC50 [4] [µM]	pKB ± SEM a [6]	Ki [7] [nM]	Ki [8] [nM]	IC50 [9] [µM]	further results
14.5 ± 1.1		CC(=O)Oc1ccccc1C(=O)O [Aspirin]						
		O=C(c1ccc(F)cc1)N1CCN(CCCN2C(=O)NC3(CCC(c4ccccc4)CC3)C2=O)CC1 (centres unmarked) [Compound 12, 3-(3-(4-(4-Fluorobenzoyl)piperazin-1-yl)propyl)-8-phenyl-1,3-diazaspiro[4.5]decane-2,4-dione]						Ki ([2]; read-out: Ki [nM] ± SEM): 2580 ± 302 nM; melting point: 203 to 205 °C
	75.8 ± 16.6	O=C1NC2(CCC(c3ccccc3)CC2)C(=O)N1CCCN1CCN(c2cccc(Cl)c2)CC1 (centres unmarked) [Compound 14, 3-(3-(4-(3-chlorophenyl)piperazin-1-yl)propyl)-8-phenyl-1,3-diazaspiro[4.5]decane-2,4-dione]	93.8 ± 9.4	7.110 ± 0.05^a	5210 ± 268	> 10000		Ki ([5]; Table S1, ref Czopek et al., Acta Pol. Pharm. 73 (2016) 1545–1554, read-out: Ki ± SEM [nM] 5-HT2A): 56 ± 7 nM; Ki ([5]; serotonin 5-HT2A receptors, already published and re-printed for comparison, read-out: Ki [nM] ± SEM): 24 ± 2.5 nM
32.1 ± 3	1.3	O=C(c1ccc(F)cc1)C1CCN(CCn2c(=O)[nH]c3ccccc3c2=O)CC1 [Ketanserin, reference compound]					9.7 ± 2.1	Ki ([5]; literature values, no reference given, read-out: 5-HT2A: Ki of conventional antagonists): 2 nM
66.8 ± 12.9		COc1cccc(CCc2ccccc2OCC(CN(C)C)OC(=O)CCC(=O)O)c1 (centres unmarked) [Sarpogrelate]		8.220 ± 0.08^b			22.7 ± 2.1	pKB ± SEM b [10]: 7.296 ± 0.04^b

SMILES	IC50 [1] [µM]	IC50 [3] [µM]	IC50 [4] [µM]	pKB ± SEM a [6]	Ki [7] [nM]	Ki [8] [nM]	IC50 [9] [µM]	further results
O=C1NC2(CCC(c3ccccc3)CC2)C(=O)N1CCCN1CCN(c2ccccc2)CC1 (centres unmarked) [Compound 13, 8-phenyl-3-(3-(4-phenylpiperazin-1-yl)propyl)-1,3-diazaspiro[4.5]decane-2,4-dione]	27.3 ± 3.8	53.3 ± 4.6	9.9 ± 2.5	7.665 ± 0.03^a	1670 ± 75	> 10000		fold higher affinity for 5-HT2A compared to compound 3 ([2]; radioligand binding, compound 13 vs compound 3): over 25 fold; Ki ([5]; 5-HT2A receptors, previous studies, read-out: Ki (5-HT2A) of earlier hydantoin leads): 50 nM
